Experimental data from US8501750B2, “Heterocyclic compound and use thereof” (Takeda Pharmaceutical Company Limited, priority 2007, dated 2013).
Counter-ions that a name gives are not always drawn. Like-named read-outs stand apart in the source and are kept apart here.

Key:
AT1 receptor = AT1 receptor (Homo sapiens (Human), UniProt P30556); assay: AT1 receptor binding inhibitory action
PPARγ = PPARγ (Homo sapiens (Human), UniProt P37231); assay: PPARγ activating action (luciferase reporter in PPARγ:RXRα:4ERPP/CHO-K1 cells); assay type: cell-based; settings: CHO-K1, 24 h, read-out: PPARγ activating action (activation % (1 μM))
Procedure: Then the medium was removed from the 96-well half area white plate, 45 μl of Ham's F12 medium containing 0.1% fatty acid-free bovine serum albumin (BSA) and 5 μl of test compound were added, and the cells were cultured in a CO2 gas incubator at 37° C. for 1 day. The medium was removed and 20 μl of PicaGene 7.5 [manufactured by Dainippon Ink and Chemicals Corporation, Japan] diluted 2-fold with HBSS (HANKS' BALANCED SALT SOLUTION) [manufactured by BIO WHITTAKER, USA] was added. After stirring, the luciferase activity was determined using 1420 ARVO Multilabel Counter [manufactured by PerkinElmer, USA]. […] A CHO-K1 cell cultured in a 150 cm^2 cell culture flask [manufactured by Corning Costar Corporation, USA] containing Ham's F12 medium [manufactured by INVITROGEN, USA] supplemented with 10% fetal bovine serum [manufactured by INVITROGEN, USA] was scraped by treating with 0.5 g/L trypsin-0.2 g/L EDTA (ethylenediaminetetraacetic acid) [manufactured by Life Technologies, Inc., USA], and then the cell was washed with PBS (Phosphate-buffered saline) [manufactured by INVITROGEN, USA], centrifuged (1000 rpm, 5 minutes) and suspended in PBS. Subsequently, DNA was introduced into the cell under the conditions shown below using GENE PULSER [manufactured by Bio-Rad Laboratories, USA]. […] Subsequently, the cell was transferred into a F12 medium containing 10% fetal bovine serum and cultured for 24 hours, and then the cell was scraped again and centrifuged, and then suspended in Ham's F12 medium containing 10% fetal bovine serum supplemented with 500 μg/ml of Geneticin [manufactured by INVITROGEN, USA] and 250 μg/ml of Zeocin [manufactured by INVITROGEN, USA]. The obtained suspension was diluted to the density of 10^4 cells/ml and inoculated in a 96-well plate [manufactured by Corning Costar Corporation, USA], which was cultured in a CO2 gas incubator at 37° C., whereby obtaining a Geneticin- and Zeocin-resistant transformant.

[1] = test compound 1 μM, luciferase activity relative to control compound X (1 μM) = 100%, non-administration group = 0%

AT1 receptor, sequence (P30556 whole entry): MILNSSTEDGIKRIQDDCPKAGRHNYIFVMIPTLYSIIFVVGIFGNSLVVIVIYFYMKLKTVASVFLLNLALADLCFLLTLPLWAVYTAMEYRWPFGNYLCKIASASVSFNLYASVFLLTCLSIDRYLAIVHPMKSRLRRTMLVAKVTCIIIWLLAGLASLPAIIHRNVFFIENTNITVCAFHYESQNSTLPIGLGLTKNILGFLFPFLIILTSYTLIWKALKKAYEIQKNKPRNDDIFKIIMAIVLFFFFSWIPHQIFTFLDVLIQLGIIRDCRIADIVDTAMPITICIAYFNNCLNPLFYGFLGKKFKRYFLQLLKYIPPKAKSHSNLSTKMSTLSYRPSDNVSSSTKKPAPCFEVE
PPARγ, sequence (P37231 29-505): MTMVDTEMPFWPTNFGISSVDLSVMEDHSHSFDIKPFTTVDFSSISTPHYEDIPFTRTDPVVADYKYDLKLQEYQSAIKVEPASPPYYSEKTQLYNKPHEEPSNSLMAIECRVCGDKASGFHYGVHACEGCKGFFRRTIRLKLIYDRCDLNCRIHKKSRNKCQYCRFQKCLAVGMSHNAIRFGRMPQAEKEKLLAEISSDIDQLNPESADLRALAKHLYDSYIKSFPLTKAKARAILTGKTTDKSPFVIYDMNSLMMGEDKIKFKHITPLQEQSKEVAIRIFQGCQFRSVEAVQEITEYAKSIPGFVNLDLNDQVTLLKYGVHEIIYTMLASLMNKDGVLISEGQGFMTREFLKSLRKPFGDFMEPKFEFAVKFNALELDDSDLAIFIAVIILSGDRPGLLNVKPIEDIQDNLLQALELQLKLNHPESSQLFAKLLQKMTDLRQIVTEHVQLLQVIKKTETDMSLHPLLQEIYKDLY
PPARγ, sequence (P19793 whole entry partner): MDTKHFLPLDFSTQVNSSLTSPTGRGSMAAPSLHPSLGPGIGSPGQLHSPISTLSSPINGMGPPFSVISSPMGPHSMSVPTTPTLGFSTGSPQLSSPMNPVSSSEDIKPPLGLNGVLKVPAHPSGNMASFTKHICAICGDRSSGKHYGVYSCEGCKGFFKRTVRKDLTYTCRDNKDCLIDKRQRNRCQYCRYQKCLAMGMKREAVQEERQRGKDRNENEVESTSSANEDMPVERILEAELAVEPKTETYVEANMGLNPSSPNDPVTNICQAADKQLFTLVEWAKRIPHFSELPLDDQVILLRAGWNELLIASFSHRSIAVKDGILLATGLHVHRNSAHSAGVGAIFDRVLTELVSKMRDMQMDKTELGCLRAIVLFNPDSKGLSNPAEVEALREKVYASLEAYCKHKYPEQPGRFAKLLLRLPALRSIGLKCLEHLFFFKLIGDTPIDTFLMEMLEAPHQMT

Row | SMILES | IC50 (AT1 receptor) [nM] | activation at 1 µM (PPARγ; [1]) [%] | activation at 1 µM (PPARγ) [%]
1 | CCc1cc2c(=O)n(CC(=O)c3ccc(OC)cc3C)c(=O)n(Cc3ccc(-c4ccccc4-c4noc(=O)[nH]4)cc3)c2s1 [Ex. 76, 6-ethyl-3-[2-(4-methoxy-2-methylphenyl)-2-oxoethyl]-1-{[2′-(5-oxo-4,5-dihydro-1,2,4-oxadiazol-3-yl)biphenyl-4-yl]methyl}thieno[2,3-d]pyrimidine-2,4(1H,3H)-dione] | 1 | 27 | 
2 | CCc1cc2c(=O)n(CC(=O)c3ccc(OC)cc3)c(=O)n(Cc3ccc(-c4ccccc4-c4noc(O)n4)cc3Br)c2s1 [Ex. 194, 1-{[3-bromo-2′-(5-oxo-4,5-dihydro-1,2,4-oxadiazol-3-yl)biphenyl-4-yl]methyl}-6-ethyl-3-[2-(4-methoxyphenyl)-2-oxoethyl]thieno[2,3-d]pyrimidine-2,4(1H,3H)-dione potassium salt] | 1.7 |  | 34
3 | CC(C)(C)C(=O)Cn1c(=O)c2cc(C3CC3)sc2n(Cc2ccc(-c3ccccc3-c3noc(=O)[nH]3)cc2)c1=O [Ex. 186, 6-cyclopropyl-3-(3,3-dimethyl-2-oxobutyl)-1-{[2′-(5-oxo-4,5-dihydro-1,2,4-oxadiazol-3-yl)biphenyl-4-yl]methyl}thieno[2,3-d]pyrimidine-2,4(1H,3H)-dione] | 1.2 | 52 | 
4 | CCc1cc2c(=O)n(CC(=O)c3ccc(Cl)cc3)c(=O)n(Cc3ccc(-c4ccccc4-c4noc(=O)[nH]4)cc3)c2s1 [Ex. 121, 3-[2-(4-chlorophenyl)-2-oxoethyl]-6-ethyl-1-{[2′-(5-oxo-4,5-dihydro-1,2,4-oxadiazol-3-yl)biphenyl-4-yl]methyl}thieno[2,3-d]pyrimidine-2,4(1H,3H)-dione] | 1.7 | 28 | 
5 | CCc1cc2c(=O)n(CC(=O)C3CCCCC3)c(=O)n(Cc3ccc(-c4ccccc4-c4noc(=O)[nH]4)cc3)c2s1 [Ex. 205, 3-(2-cyclohexyl-2-oxoethyl)-6-ethyl-1-{[2′-(5-oxo-4,5-dihydro-1,2,4-oxadiazol-3-yl)biphenyl-4-yl]methyl}thieno[2,3-d]pyrimidine-2,4(1H,3H)-dione] | 1.5 | 69 | 
6 | CCc1cc2c(=O)n(CC(=O)c3ccccc3OC)c(=O)n(Cc3ccc(-c4ccccc4-c4noc(O)n4)cc3)c2s1 [Ex. 109, 6-ethyl-3-[2-(2-methoxyphenyl)-2-oxoethyl]-1-{[2′-(5-oxo-4,5-dihydro-1,2,4-oxadiazol-3-yl)biphenyl-4-yl]methyl}thieno[2,3-d]pyrimidine-2,4(1H,3H)-dione potassium salt] | 1.4 |  | 64
7 | CCc1cc2c(=O)n(CC(=O)c3cccs3)c(=O)n(Cc3ccc(-c4ccccc4-c4noc(=O)[nH]4)cc3)c2s1 [Ex. 221, 6-ethyl-1-{[2′-(5-oxo-4,5-dihydro-1,2,4-oxadiazol-3-yl)biphenyl-4-yl]methyl}-3-[2-oxo-2-(2-thienyl)ethyl]thieno[2,3-d]pyrimidine-2,4(1H,3H)-dione] | 1.4 | 47 | 
8 | CCc1cc2c(=O)n(CC(=O)c3ccc(OC)cc3F)c(=O)n(Cc3ccc(-c4ccccc4-c4noc(=O)[nH]4)cc3)c2s1 [Ex. 73, 6-ethyl-3-[2-(2-fluoro-4-methoxyphenyl)-2-oxoethyl]-1-{[2′-(5-oxo-4,5-dihydro-1,2,4-oxadiazol-3-yl)biphenyl-4-yl]methyl}thieno[2,3-d]pyrimidine-2,4(1H,3H)-dione] | 1.5 | 35 | 
9 | CCc1cc2c(=O)n(CC(=O)c3nc4ccccc4n3C)c(=O)n(Cc3ccc(-c4ccccc4-c4noc(=O)[nH]4)cc3)c2s1 [Ex. 140, 6-ethyl-3-[2-(1-methyl-1H-benzoimidazol-2-yl)-2-oxoethyl]-1-{[2′-(5-oxo-4,5-dihydro-1,2,4-oxadiazol-3-yl)biphenyl-4-yl]methyl}thieno[2,3-d]pyrimidine-2,4(1H,3H)-dione] | 1.7 | 26 | 
10 | CCc1cc2c(=O)n(CC(=O)c3ccc(OC)cc3)c(=O)n(Cc3ccc(-c4cc(F)ccc4-c4noc(=O)[nH]4)cc3)c2s1 [Ex. 203, 6-ethyl-1-{[5′-fluoro-2′-(5-oxo-4,5-dihydro-1,2,4-oxadiazol-3-yl)biphenyl-4-yl]methyl}-3-[2-(4-methoxyphenyl)-2-oxoethyl]thieno[2,3-d]pyrimidine-2,4(1H,3H)-dione] | 1.8 | 28 | 
11 | CCc1cc2c(=O)n(CC(=O)c3ccc(OC)cc3)c(=O)n(Cc3ccc(-c4ccccc4-c4noc(=O)[nH]4)cc3F)c2s1 [Ex. 83, 6-ethyl-1-{[3-fluoro-2′-(5-oxo-4,5-dihydro-1,2,4-oxadiazol-3-yl)biphenyl-4-yl]methyl}-3-[2-(4-methoxyphenyl)-2-oxoethyl]thieno[2,3-d]pyrimidine-2,4(1H,3H)-dione] | 0.77 | 37 | 
12 | CCc1cc2c(=O)n(CC(=O)c3ccc(OC)cc3)c(=O)n(Cc3ccc(-c4ccc(F)cc4-c4noc(=O)[nH]4)cc3)c2s1 [Ex. 198, 6-ethyl-1-{[4′-fluoro-2′-(5-oxo-4,5-dihydro-1,2,4-oxadiazol-3-yl)biphenyl-4-yl]methyl}-3-[2-(4-methoxyphenyl)-2-oxoethyl]thieno[2,3-d]pyrimidine-2,4(1H,3H)-dione] | 1.5 | 36 | 
13 | CCc1cc2c(=O)n(CC(=O)C34CC5CC(CC(C5)C3)C4)c(=O)n(Cc3ccc(-c4ccccc4-c4noc(=O)[nH]4)cc3)c2s1 [Ex. 132, 3-[2-(1-adamantyl)-2-oxoethyl]-6-ethyl-1-{[2′-(5-oxo-4,5-dihydro-1,2,4-oxadiazol-3-yl)biphenyl-4-yl]methyl}thieno[2,3-d]pyrimidine-2,4(1H,3H)-dione] | 1.7 | 50 | 
14 | CCc1cc2c(=O)n(CC(=O)c3ccc(OC)cc3)c(=O)n(Cc3ccc(-c4ccccc4-c4noc(O)n4)cc3C)c2s1 [Ex. 116, 6-ethyl-3-[2-(4-methoxyphenyl)-2-oxoethyl]-1-{[3-methyl-2′-(5-oxo-4,5-dihydro-1,2,4-oxadiazol-3-yl)biphenyl-4-yl]methyl}thieno[2,3-d]pyrimidine-2,4(1H,3H)-dione potassium salt] | 1.8 |  | 38
15 | CCc1cc2c(=O)n(CC(C)(C)c3ccccc3)c(=O)n(Cc3ccc(-c4ccccc4-c4noc(=O)[nH]4)cc3)c2s1 [Ex. 225, 6-ethyl-3-(2-methyl-2-phenylpropyl)-1-{[2′-(5-oxo-4,5-dihydro-1,2,4-oxadiazol-3-yl)biphenyl-4-yl]methyl}thieno[2,3-d]pyrimidine-2,4(1H,3H)-dione] | 1.6 | 39 | 
16 | COc1ccc(C(=O)Cn2c(=O)c3cc(C4CC4)sc3n(Cc3ccc(-c4ccccc4-c4noc(O)n4)cc3F)c2=O)cc1 [Ex. 105, 6-cyclopropyl-1-{[3-fluoro-2′-(5-oxo-4,5-dihydro-1,2,4-oxadiazol-3-yl)biphenyl-4-yl]methyl}-3-[2-(4-methoxyphenyl)-2-oxoethyl]thieno[2,3-d]pyrimidine-2,4(1H,3H)-dione potassium salt] | 1 |  | 34
17 | O=C(Cn1c(=O)c2cc(C3CC3)sc2n(Cc2ccc(-c3ccccc3-c3noc(=O)[nH]3)cc2)c1=O)c1ccc(F)cc1 [Ex. 63, 6-cyclopropyl-3-[2-(4-fluorophenyl)-2-oxoethyl]-1-{[2′-(5-oxo-4,5-dihydro-1,2,4-oxadiazol-3-yl)biphenyl-4-yl]methyl}thieno[2,3-d]pyrimidine-2,4(1H,3H)-dione] | 1.1 | 31 | 
18 | CCc1cc2c(=O)n(CC(=O)C(C)(C)C)c(=O)n(Cc3ccc(-c4ccccc4-c4noc(=O)[nH]4)cc3)c2s1 [Ex. 131, 3-(3,3-dimethyl-2-oxobutyl)-6-ethyl-1-{[2′-(5-oxo-4,5-dihydro-1,2,4-oxadiazol-3-yl)biphenyl-4-yl]methyl}thieno[2,3-d]pyrimidine-2,4(1H,3H)-dione] | 1.2 | 72 | 
19 | CCc1cc2c(=O)n(CC(O)c3ccc(OC)cc3)c(=O)n(Cc3ccc(-c4ccccc4-c4noc(=O)[nH]4)cc3F)c2s1 (stereo not shown) [Ex. 152, 6-ethyl-1-{[3-fluoro-2′-(5-oxo-4,5-dihydro-1,2,4-oxadiazol-3-yl)biphenyl-4-yl]methyl}-3-[2-hydroxy-2-(4-methoxyphenyl)ethyl]thieno[2,3-d]pyrimidine-2,4(1H,3H)-dione] | 1.5 | 40 | 
20 | CCO/N=C(/Cn1c(=O)c2cc(CC)sc2n(Cc2ccc(-c3ccccc3-c3noc(=O)[nH]3)cc2)c1=O)c1ccc(OC)cc1 [Ex. 210, 3-[2-(ethoxyimino)-2-(4-methoxyphenyl)ethyl]-6-ethyl-1-{[2′-(5-oxo-4,5-dihydro-1,2,4-oxadiazol-3-yl)biphenyl-4-yl]methyl}thieno[2,3-d]pyrimidine-2,4(1H,3H)-dione] | 1.6 | 31 | 
